According to US20040214789A1, “Therapeutics” (priority 2001, published 2004):
Entries after “also recorded” stand apart in the source; their conditions may differ.

How the values were obtained:
[1] = test system: P10 ADP-ribosyl cyclase from Jurkat T lymphocytes; assay: Inhibition of P10 (heavy membrane) ADP-ribosyl cyclase, cyclase activity; assay type: biochemical, human; details: for Inhibition of intracellular membrane bound P10 ADP-ribosyl cyclase (in words): heavy (P10) membranes from Jurkat T cells, FIG. 3; for Enzyme Activity (% of control), Cyclase activity: P10 fraction, 100 μM 1,N6-etheno-NAD substrate
Procedure: (§1) Heavy membrane (P10 membranes) were prepared from Jurkat T cells (10^9 cells) as described (Guse et al., Nature 1999). P10-ADP-ribosyl cyclase was then incubated with 100 μM substrate (1,N^6-etheno-NAD) in the presence or absence of various concentrations of 8-Br-NHD. The formation of 1,N^6-etheno-cADPR and 1,N^6-etheno-ADPR was continuously monitored by fluorimetry (exc. 300 nm, em. 410 nm). Finally, the precise amount of products 1,N^6-etheno-cADPR and 1,N^6-etheno-ADPR was quantified by HPLC (da Silva et al., 1998a) using a fluorescence detector. Data are presented as mean±SD (n≧3).

[2] = test system: NAD glycohydrolase activity of P10 membranes from Jurkat T lymphocytes; assay: Inhibition of NAD glycohydrolase (NADase) activity in the P10 fraction; assay type: biochemical, human; details: for Inhibition of NADase activity in the P10 fraction (in words): FIG. 3; for Enzyme Activity (% of control), NAD glycohydrolase activity: P10 fraction
Procedure: as §1

[3] = test system: soluble ADP-ribosyl cyclase from Jurkat T lymphocytes; assay: Inhibition of partially purified soluble ADP-ribosyl cyclase, cyclase activity; assay type: biochemical, human; details: soluble fraction, 100 μM 1,N6-etheno-NAD substrate
Procedure: as §1, with “FIG. 1-a, b—Inhibition of intracellular, soluble ADP-ribosyl cyclase by 8-Br-NHD. Soluble protein (S100 protein) was” for “Heavy membrane (P10 membranes) were”, “1999) and soluble ADP-ribosyl cyclase was partially purified by hydroxyapatite chromatography. Partially purified ADP-ribosyl” for “1999). P10-ADP-ribosyl”, “mean ±SD” for “mean±SD”
(§2) Soluble protein (S100 protein) was prepared from Jurkat T cells (10^9 cells) as described (Guse et al., Nature 1999) and soluble ADP-ribosyl cyclase was partially purified by hydroxyapatite chromatography. […] The formation of 1,N^6-etheno-cADPR and 1,N^6-etheno-ADPR was continuously monitored by fluorimetry (exc. 300 nm, em. 410 nm). Finally, the precise amount of products 1,N^6-etheno-cADPR and 1,N^6-etheno-ADPR was quantified by HPLC (da Silva et al., 1998a) using a fluorescence detector. Data are presented as mean±SD (n≧3).

[4] = test system: NAD glycohydrolase activity of soluble protein fraction from Jurkat T lymphocytes; assay: Inhibition of NAD glycohydrolase (NADase) activity in the soluble fraction; assay type: biochemical, human
Procedure: FIG. 1-a, b—Inhibition of intracellular, soluble ADP-ribosyl cyclase by 8-Br-NHD. Soluble protein (S100 protein) was prepared from Jurkat T cells (10^9 cells) as described (Guse et al., Nature 1999) and soluble ADP-ribosyl cyclase was partially purified by hydroxyapatite chromatography. Partially purified ADP-ribosyl cyclase was then incubated with 100 μM substrate (1,N^6-etheno-NAD) in the presence or absence of various concentrations of 8-Br-NHD. The formation of 1,N^6-etheno-cADPR and 1,N^6-etheno-ADPR was continuously monitored by fluorimetry (exc. 300 nm, em. 410 nm). Finally, the precise amount of products 1,N^6-etheno-cADPR and 1,N^6-etheno-ADPR was quantified by HPLC (da Silva et al., 1998a) using a fluorescence detector. Data are presented as mean ±SD (n≧3).
as §2

[5] = target: T1, ecto-ADP-ribosyl cyclase (CD38) (Homo sapiens, UniProt P28907); assay: Inhibition of cell surface ADP-ribosyl cyclase on intact Jurkat T cells; assay type: cell-based; details: FIG. 4
T1 construct: Intact Jurkat T cells expressing ecto-ADP-ribosyl cyclase; endogenous in cells; host or cells: intact Jurkat T cells
T1 sequence (P28907 1-300): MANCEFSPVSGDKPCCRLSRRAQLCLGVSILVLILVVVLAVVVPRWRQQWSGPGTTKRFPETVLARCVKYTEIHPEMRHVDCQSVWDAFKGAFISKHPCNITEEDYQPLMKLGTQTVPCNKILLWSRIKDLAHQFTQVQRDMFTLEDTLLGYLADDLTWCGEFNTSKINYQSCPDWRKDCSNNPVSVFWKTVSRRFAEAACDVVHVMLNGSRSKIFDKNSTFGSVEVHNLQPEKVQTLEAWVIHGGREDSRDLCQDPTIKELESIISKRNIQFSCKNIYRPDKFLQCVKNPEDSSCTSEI
Procedure: (§3) Intact Jurkat T cells expressing ecto-ADP-ribosyl cyclase (da Silva et al., 1998b) were incubated with 100 μM substrate (1,N^6-etheno-NAD) in the presence or absence of various concentrations of 8-Br-NHD. It is likely that this enzyme is CD38. The formation of 1,N^6-etheno-cADPR and 1,N^6-etheno-ADPR was continuously monitored by fluorimetry (exc. 300 nm, em. 410 nm). Finally, the precise amount of products 1,N^6-etheno-cADPR and 1,N^6-etheno-ADPR was quantified by HPLC (da Silva et al., 1998a) using a fluorescence detector. Data are presented as mean±SD (n≧3).

[6] = target: T2, NADase activity of intact Jurkat T cells expressing ecto-ADP-ribosyl cyclase (Homo sapiens, UniProt P28907); assay: Inhibition of NADase activity on intact Jurkat T cells; assay type: cell-based; details: FIG. 4
T2 construct: Intact Jurkat T cells expressing ecto-ADP-ribosyl cyclase; endogenous in cells; host or cells: intact Jurkat T cells
T2 sequence (P28907 1-300): T1 sequence (P28907 1-300)
Procedure: as §3

[7] = test system: TCR/CD3-mediated Ca2+-signalling of the human Jurkat T cell line; assay: TCR/CD3-mediated Ca2+ signalling, Fura2 ratiometric imaging; assay type: cell-based; details: preincubation 250 or 500 μM for 30 min, anti-CD3 OKT3 stimulation, 25 min after stimulation; FIG. 5
Procedure: Intact Jurkat T cells were loaded with Fura2-AM, and Ca^2+ signalling was measured by digital ratiometric Ca^2+ imaging (Guse et al., Nature 1999). For technical reasons the excitation wavelengths were set to 340 and 365 nm, whereas emission was filtered at 520 nm. The cells were preincubated with 250 or 500 μM 8-Br-NHD for 30 min. Then the cells were stimulated by anti-CD3 antibody OKT3 ([…]) in solution, and the cells were transferred to the examination chamber on the digital imaging station. The intracellular Ca^+ concentration was then monitored for about 25 min with a sampling rate of 3 or 6/min. Data are presented as mean intracellular Ca^2+ concentration ±SEM 25 min after stimulation. Numbers in brackets indicate the number of cells investigated in 3 independent experiments.

human Jurkat T cells = assay: Proliferation of Jurkat T cells, trypan blue cell counting; assay type: cell-based; details: present for 4 or 5 days; FIG. 6
Procedure: FIG. 6—Inhibition of proliferation of the human Jurkat T cell line by 8-Br-NHD. Proliferation of intact Jurkat T cells was measured as described earlier (Guse et al., Cell Calcium 1997). Various concentrations of 8-Br-NHD were added to the cultures in 96 well plates, and were present for 4 or 5 days. The number of living cells was determined every day by cell counting of trypan blue stained cells. Data are mean±SD from 2 independent experiments.

NADase = details: positive controls; cited from earlier work

SMILES | Inhibition of intracellular membrane bound P10 ADP-ribosyl cyclase (in words) [1] | Enzyme Activity (% of control), Cyclase activity ([1]; inhibitor 10 μM) | Enzyme Activity (% of control), Cyclase activity ([1]; inhibitor 100 μM) | Inhibition of NADase activity in the P10 fraction (in words) [2] | Enzyme Activity (% of control), NAD glycohydrolase activity ([2]; inhibitor 10 μM) | Enzyme Activity (% of control), NAD glycohydrolase activity ([2]; inhibitor 100 μM) | Enzyme Activity (% of control), Cyclase activity ([3]; inhibitor 10 μM) | Enzyme Activity (% of control), Cyclase activity ([3]; inhibitor 100 μM) | Enzyme Activity (% of control), NAD glycohydrolase activity ([4]; inhibitor 10 μM) | Enzyme Activity (% of control), NAD glycohydrolase activity ([4]; inhibitor 100 μM) | Inhibition of ecto-ADP-ribosyl cyclase (in words) [5] | Inhibition of NADase activity, cell surface (in words) [6] | Second, sustained phase of Ca2+ signaling (in words) [7] | Proliferation of Jurkat T cells (in words) (human Jurkat T cells) | Enzyme Activity (% of control), Cyclase activity ([1]; inhibitor 1000 μM) | Enzyme Activity (% of control), NAD glycohydrolase activity ([2]; inhibitor 1000 μM) | Enzyme Activity (% of control), Cyclase activity ([3]; inhibitor 1000 μM) | Enzyme Activity (% of control), NAD glycohydrolase activity ([4]; inhibitor 1000 μM) | Published as inhibitor of NADase (NADase)
NC(=O)c1ccc[n+](C2OC(COP(=O)([O-])OP(=O)(O)OCC3OC(n4c(Br)nc5c(=O)[nH]cnc54)C(O)C3O)C(O)C2O)c1 (stereo not drawn) [8-Br-NHD, nicotinamide 8-bromohypoxanthine dinucleotide] | dose-dependently inhibited; also recorded: inhibit | 59.2 % of control | 14.3 % of control | inhibited with a similar pharmacology; also recorded: inhibit | 60.8 % of control | 15.6 % of control | 57.7 % of control | 13.0 % of control | 55.5 % of control | 3.3 % of control | dose-dependent inhibition | inhibited with a similar pharmacology | significantly reduced | dose-dependently inhibits | – | – | – | – | –
NC(=O)c1ccc[n+]([C@@H]2O[C@H](COP(=O)([O-])OP(=O)(O)OC[C@H]3O[C@@H](n4ccc5c(=O)[nH]cnc54)[C@H](O)[C@@H]3O)[C@@H](O)[C@H]2O)c1 [7-deaza-NHD, 7-deaza-nicotinamide hypoxanthine dinucleotide] | inhibit | 97.9 % of control | 82.1 % of control | inhibit | 97.5 % of control | 83.3 % of control | 94.0 % of control | 69.3 % of control | 94 % of control | 80.5 % of control | – | – | – | – | – | – | – | – | –
NC(=O)c1ccc[n+](C2OC(COP(=O)(O)OP(=O)(O)OCC3OC(n4cnc5c(=O)[nH]cnc54)C(O)C3O)C(O)C2O)c1 (stereo not drawn) [NHD, nicotinamide hypoxanthine dinucleotide] | inhibit | 63.6 % of control | 11.26 % of control | inhibit | 59.0 % of control | 0 % of control | 46.0 % of control | 10.6 % of control | 37.3 % of control | 13.5 % of control | – | – | – | – | – | – | – | – | –
NC(=O)c1cccnc1 [Nicotinamide, nicotinamide, reference compound] | – | 94.0 % of control | 43.3 % of control | – | 94.2 % of control | 42.6 % of control | 99.2 % of control | 38.2 % of control | 95.2 % of control | 29.6 % of control | – | – | – | – | 14.9 % of control | 12.4 % of control | 10.6 % of control | 8.2 % of control | published as inhibitors of NADase
NC(=O)c1ccc[n+]([C@@H]2O[C@H](COP(=O)([O-])O)[C@@H](O)[C@H]2O)c1 [β-NMN, β-nicotinamide mononucleotide, reference compound] | – | 112.3 % of control | 93.4 % of control | – | 115.0 % of control | 91.9 % of control | 80.5 % of control | 65.4 % of control | 81.3 % of control | 59.4 % of control | – | – | – | – | 56.9 % of control | 48.8 % of control | 36.5 % of control | 26.9 % of control | published as inhibitors of NADase
